# Measurements taken from PubChem BioAssay AID602264 (The Scripps Research Institute Molecular Screening Center, 2012).
# Active and inactive are the calls of the source. How the calls were made is not given here.
# Biological target: Mu-type opioid receptor (Homo sapiens) + Delta-type opioid receptor (Homo sapiens) (UniProt P35372+P41143)
# Experiment: OPRM1-OPRD1 heterodimer agonist potency – cell-based, luminescence, counter-screen for MC4R biased agonist project, dose response (AID 602264)
# Details: cell-based OPRM1-OPRD1 heterodimerization
# Sequence of Mu-type opioid receptor (Homo sapiens) + Delta-type opioid receptor (Homo sapiens) (P35372 whole entry, looked up): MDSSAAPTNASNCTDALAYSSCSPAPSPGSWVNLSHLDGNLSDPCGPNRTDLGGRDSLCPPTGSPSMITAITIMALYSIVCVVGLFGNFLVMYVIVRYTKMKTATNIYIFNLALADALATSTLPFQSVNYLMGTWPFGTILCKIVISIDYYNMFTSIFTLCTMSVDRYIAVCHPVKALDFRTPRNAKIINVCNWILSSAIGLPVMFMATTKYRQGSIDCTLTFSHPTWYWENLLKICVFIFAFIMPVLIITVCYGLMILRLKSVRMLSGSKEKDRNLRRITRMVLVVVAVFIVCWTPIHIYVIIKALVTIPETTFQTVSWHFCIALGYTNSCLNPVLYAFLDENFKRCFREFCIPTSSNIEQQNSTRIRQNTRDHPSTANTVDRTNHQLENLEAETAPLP
# Sequence of Mu-type opioid receptor (Homo sapiens) + Delta-type opioid receptor (Homo sapiens) (P41143 whole entry, looked up): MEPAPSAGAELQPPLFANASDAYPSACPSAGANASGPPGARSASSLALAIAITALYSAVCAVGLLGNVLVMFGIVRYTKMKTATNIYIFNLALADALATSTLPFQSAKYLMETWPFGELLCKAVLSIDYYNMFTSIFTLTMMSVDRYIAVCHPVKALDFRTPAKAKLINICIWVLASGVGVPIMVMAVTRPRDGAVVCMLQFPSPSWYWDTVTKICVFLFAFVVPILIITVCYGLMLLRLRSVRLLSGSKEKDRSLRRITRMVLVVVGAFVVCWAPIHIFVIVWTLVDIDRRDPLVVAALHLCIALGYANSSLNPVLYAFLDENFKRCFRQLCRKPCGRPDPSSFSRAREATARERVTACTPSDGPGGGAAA
row,Compound,EC50
1,Clc1ccc(C[n+]2c(-c3ccccc3)cc(-c3ccccc3)cc2-c2ccccc2)cc1,> 92.5 µM (inactive)
2,COc1ccc(-c2cc(NC(C)=O)c3ncc(-c4cccc(C(F)(F)F)c4)n3c2)c(OC)c1,> 92.5 µM (inactive)
3,CN(C)CCCN(C(=O)CCc1ccccc1)c1nc2ccc(Cl)cc2s1,> 92.4 µM (inactive)
4,COc1ccc(-c2sc3ccccc3c2-c2ccc(OCCN(C)C)cc2)cc1,> 92.5 µM (inactive)
5,Nc1c(-c2cccs2)cnn1-c1nc(-c2ccc(Cl)cc2Cl)cs1,> 64.6 µM (inactive)
6,O=C1c2cccc3cccc(c23)C(=O)N1CC1CCN(CC(O)COc2ccc3ccccc3c2)CC1 (centres undefined),> 10.3 µM (inactive)
7,CCCCNc1c(-c2cccc(-c3cc(C(C)=O)cs3)c2)nc2ccc(C)cn12,> 64.6 µM (inactive)
8,CCOc1cc(CNCCc2c[nH]c3ccccc23)cc(Cl)c1OCC,> 92.5 µM (inactive)
9,COc1ccc(-c2ccc3c(c2)S(=O)(=O)c2cccc(C(=O)NCc4cc(C)oc4C(F)(F)F)c2C3=O)cc1OC,> 92.5 µM (inactive)
10,CC(=O)c1cccc(-c2cnc3c(NC=O)cc(-c4ccccc4F)cn23)c1,> 64.6 µM (inactive)
11,O=C(CCN1C(=O)/C(=C/C=C/c2ccccc2)SC1=S)Nc1cccnc1,> 92.5 µM (inactive)
12,COc1ccc2nc(NC(=O)CSc3nc4cccnc4n3C)sc2c1,> 64.6 µM (inactive)
13,COc1cc(C(=O)Nc2nnc(-c3sccc3C)s2)cc(OC)c1OC,> 92.5 µM (inactive)
14,CC(=O)Nc1cc(-c2ccccc2F)cn2c(-c3cccc(C(F)(F)F)c3)cnc12,> 92.5 µM (inactive)
15,Cc1cc(C)c2sc(N(CCCN(C)C)C(=O)c3ccc(Br)s3)nc2c1,> 92.5 µM (inactive)
16,COc1ccc2[nH]c3c(C)c4ccncc4c(C)c3c2c1,> 64.7 µM (inactive)
17,CC(=O)Nc1cc(-c2ccccc2N(C)C)cn2c(-c3ccc(F)c(Cl)c3)cnc12,> 64.6 µM (inactive)
18,Cc1cc(C)nc(Nc2nc(C(N)Cc3ccc(Cl)cc3)cs2)n1 (centres undefined),> 92.5 µM (inactive)
19,O=C(Nc1cc(-c2nc3ccccc3s2)ccc1Cl)c1ccc2c(c1)OCO2,> 92.4 µM (inactive)
20,CCOc1cc(NC(=O)c2cccs2)c(OCC)cc1NC(=O)c1ccco1,> 92.3 µM (inactive)
21,CCCCCCCCCCCCCCCC[n+]1cccc(C(=O)N(CC)CC)c1,> 64.6 µM (inactive)
22,COc1ccc(-c2csc(C3=C(O)CN(Cc4ccc(Cl)cc4)C3=N)n2)cc1OC,> 64.6 µM (inactive)
23,COC(=O)c1c(NC(=O)CC2SC(N)=NC2=O)sc2c1CCC(C(C)(C)C)C2 (centres undefined),> 92.5 µM (inactive)

row,Compound,EC50
1,N#C/C(=C\c1cn(CCOc2ccccc2)c2ccccc12)C(=O)NCc1ccco1,> 92.5 µM (inactive)
2,Cc1ccc(C(=O)c2coc3c2C(=O)C(=O)c2ccccc2-3)cc1,> 64.6 µM (inactive)
3,COc1cccc(-c2cnc3c(NC(C)=O)cc(-c4cc(F)ccc4OC)cn23)c1,> 92.5 µM (inactive)
4,CC(/C=C/C=C/c1ccccc1)=N/NC(=O)CNc1ccccc1C,> 64.6 µM (inactive)
5,CC(C)c1ccc(NS(=O)(=O)c2ccc(-n3cccn3)cc2)cc1,> 92.5 µM (inactive)
6,COc1ccc(C(NC(=O)C2CCN(CCOc3ccc(Cl)cc3Cl)CC2)c2cccs2)cc1 (centres undefined),inactive
7,COc1cccc(/C=C2/SC(=S)N(CCCC(=O)Nc3ccc(O)cc3)C2=O)c1,> 92.5 µM (inactive)
8,COc1ccc(-c2cc(NC(C)=O)c3ncc(-c4ccc(OC)c(OC)c4)n3c2)cc1OC,> 64.6 µM (inactive)
9,COc1cccc(-c2cnc3c(NC(C)=O)cc(-c4cc(OC)c(OC)c(OC)c4)cn23)c1,> 64.6 µM (inactive)
10,COc1cccc(-c2cnc3c(NC(C)=O)cc(-c4ccsc4)cn23)c1,> 92.5 µM (inactive)
11,N#C/C(=C\c1ccc(-c2ccc(F)cc2)o1)C(=O)Nc1nc(-c2cccs2)cs1,> 64.6 µM (inactive)
12,CC(=O)Nc1cc(-c2ccccc2)cn2c(-c3ccc(F)cc3)cnc12,> 64.6 µM (inactive)
13,CCSc1nnc(NC(=O)c2csc3c2CCCC3)s1,> 92.5 µM (inactive)
14,COc1ccc(COc2ccsc2C(=O)Nc2ccc(Cl)c(Cl)c2)cc1,> 64.6 µM (inactive)
15,CC(=O)Nc1cc(-c2cccc(F)c2)cn2c(-c3ccc(F)cc3)cnc12,> 92.5 µM (inactive)
16,COc1ccc(NC(=O)COC(=O)c2c(NC(C)=O)sc(C)c2C)cc1,> 92.5 µM (inactive)
17,COc1cc(NC(=O)COc2ccccc2[N+](=O)[O-])ccc1NC(=O)c1cccs1,> 92.5 µM (inactive)
18,CC(=O)Nc1cc(-c2cccc(F)c2)cn2c(-c3ccc(F)c(Cl)c3)cnc12,> 64.6 µM (inactive)
19,CCOc1ccc(NC(=S)NC(=O)/C=C/c2ccc(C)cc2)c([N+](=O)[O-])c1,> 64.6 µM (inactive)
20,CC(=O)Nc1cc(-c2ccccc2N(C)C)cn2c(-c3ccccc3)cnc12,> 92.4 µM (inactive)
21,COc1cccc(-c2cnc3c(NC=O)cc(-c4cc(OC)c(OC)c(OC)c4)cn23)c1,> 92.5 µM (inactive)
22,O=C(CCN1C(=O)/C(=C/C=C/c2ccccc2)SC1=S)Nc1ccccn1,> 92.5 µM (inactive)
23,O=C(NC(c1ccccc1)c1ccsc1)C1CCN(CCOc2ccc(Cl)cc2Cl)CC1 (centres undefined),inactive

row,Compound,EC50
1,COc1ccccc1-c1cc(NC=O)c2ncc(-c3ccc(F)cc3)n2c1,> 92.4 µM (inactive)
2,CCOC(=O)Cc1csc(NC(=O)c2sc3nc4cc(C)ccc4cc3c2N)n1,> 92.4 µM (inactive)
3,CCN1CCN(Cc2ccc(NC(=O)c3cc(NC(=O)c4cc5cccc(OC)c5o4)cc(OC)c3)cc2C(F)(F)F)CC1,> 64.6 µM (inactive)
4,COc1ccc(CNCCc2ccc(Cl)cc2)cc1OCc1ccccc1,> 92.5 µM (inactive)
5,COc1ccc(-c2cc(NC(C)=O)c3ncc(-c4ccccc4)n3c2)c(OC)c1,> 92.4 µM (inactive)
6,Cc1nnnn1/C(=C\c1ccccc1)C(=O)OCC(=O)Nc1ccc(Cl)cc1F,> 92.5 µM (inactive)
7,O=C(c1ccc(COc2ccc(Br)cc2)o1)N1N=C(C(F)F)CC1(O)C(F)F (centres undefined),inactive
8,COc1ccccc1-c1cc(NC(C)=O)c2ncc(-c3ccccc3)n2c1,> 92.4 µM (inactive)
9,CCn1c(SCC(=O)Nc2ccc(C(C)=O)cc2)nc2nc3c(cc2c1=O)CCCC3,> 64.6 µM (inactive)
10,CC(=O)Nc1cc(-c2ccc(CO)cc2)cn2c(-c3cccc(C(F)(F)F)c3)cnc12,> 64.6 µM (inactive)
11,Cc1ccc(O)c(C(=O)/C=C/c2ccc3c(c2)OCCCO3)c1,> 64.6 µM (inactive)
12,CC(O)CC(=O)OC[C@]12CC[C@H]3[C@@](C)(CC[C@H]4C(C)(C)CCC[C@]34C)[C@@H]1CC(C1=CC(=O)OC1O)O2 (some centres undefined),> 64.6 µM (inactive)
13,CCCCCCCCNS(=O)(=O)CCNCCc1ccccc1,> 92.4 µM (inactive)
14,Clc1ccc(/C=N/NC2=Nc3cccc4cccc2c34)cc1,> 92.4 µM (inactive)
15,Cc1ccc2sc(N(CCCN(C)C)C(=O)CN3C(=O)c4ccccc4C3=O)nc2c1C,> 64.6 µM (inactive)
16,Clc1ccc(Cn2ncc3c(N4CCN(c5ccccc5)CC4)ncnc32)cc1,> 92.3 µM (inactive)
17,Cc1ccc(CN2CCC(c3cc(-c4ccc(Cl)cc4)n[nH]3)CC2)cc1,> 92.5 µM (inactive)
18,COc1cc(O)c(CC=C(C)C)c(O)c1C(=O)CCc1ccc(O)cc1,> 64.6 µM (inactive)
19,Cc1ccc2sc(N(CCCN(C)C)C(=O)c3ccc(Br)s3)nc2c1C,> 64.6 µM (inactive)
20,Nc1ccc(C2(c3ccc(N)cc3)c3ccccc3-c3ccccc32)cc1,> 92.5 µM (inactive)
21,COc1ccc(/C=N/NC(=O)c2ccc(COc3ccccc3Cl)o2)c(OC)c1C,> 64.6 µM (inactive)
22,CC(=O)Nc1cc(-c2cccc(C(=O)NCCN(C)C)c2)cn2c(-c3cccc(C(F)(F)F)c3)cnc12,> 92.5 µM (inactive)
23,COc1cccc(-c2cnc3c(NC=O)cc(-c4ccoc4)cn23)c1,> 64.6 µM (inactive)

row,Compound,EC50
1,COc1ccc(-c2cc(NC=O)c3ncc(-c4cccc(C(F)(F)F)c4)n3c2)cc1OC,> 64.6 µM (inactive)
2,FC(F)(F)c1cccnc1Oc1ccc(C2=NCCS2)cc1,> 92.4 µM (inactive)
3,O=C1OC(c2ccccc2)(c2cc(Br)ccc2O)c2ccccc21 (centres undefined),inactive
4,Cc1nc(NC(=O)c2cccc(-c3cc4ccccc4oc3=O)c2)ccc1Br,> 64.6 µM (inactive)
5,CCCCCCCCCCOC(=O)Cn1c(COc2cccc(C)c2)[n+](C)c2ccccc21,> 64.6 µM (inactive)
6,Cc1ccc(O)c(C(=O)/C=C/c2ccc3c(c2)OCCO3)c1,> 92.5 µM (inactive)
7,CCOc1ccc(NC(=O)CSc2nc(-c3cccs3)cc(C(F)(F)F)n2)c([N+](=O)[O-])c1,> 64.6 µM (inactive)
8,O=C(NC(c1ccccc1)c1ccc2ccccc2n1)C1CCN(CCOc2ccc(Cl)cc2Cl)CC1 (centres undefined),inactive
9,O=C1OC(c2ccccc2)(c2ccc(O)cc2)c2ccccc21 (centres undefined),> 92.5 µM (inactive)
10,COc1cccc(CC2(CO)CCCN(Cc3[nH]c4ccc(C)cc4c3C)C2)c1 (centres undefined),> 92.5 µM (inactive)
11,c1ccc(-c2sc3ccccc3c2-c2ccc(OCCN3CCCC3)cc2)cc1,> 92.5 µM (inactive)
12,COc1ccc2sc(-c3ccc(S(C)(=O)=O)cc3)c(C#Cc3cncn3C)c2c1,> 92.5 µM (inactive)
13,CCCCCCCCCCOC(=O)Cn1c(COc2ccc(OC)cc2)[n+](C)c2ccccc21,> 92.5 µM (inactive)
14,Cc1ccc(C(=O)Cn2c(C(=O)/C=C/c3ccccc3)nc3ccccc32)cc1,> 64.6 µM (inactive)
15,CC(=O)Nc1cc(-c2ccc(N(C)C)cc2)cn2c(-c3ccc(F)cc3)cnc12,> 64.6 µM (inactive)
16,CC(=O)Nc1cc(-c2ccc(F)cc2)cn2c(-c3ccc(F)c(Cl)c3)cnc12,> 64.6 µM (inactive)
17,CN(C)CCCN(C(=O)c1cc2cc([N+](=O)[O-])ccc2s1)c1nc2cc3c(cc2s1)OCCO3,> 92.5 µM (inactive)
18,Cc1ccccc1NC(=O)c1ccc(COc2ccc3c(C)cc(=O)oc3c2)cc1,> 64.6 µM (inactive)
19,CCN1CCN(CCNC(=O)c2ccc(/C=C3\Sc4ccccc4N(Cc4ccccc4F)C3=O)cc2)CC1,> 92.5 µM (inactive)
20,CC(C)c1ccc(NC(=O)CSc2ncccc2C(=O)Oc2cccc([N+](=O)[O-])c2)cc1,> 92.5 µM (inactive)
